Assay results as given in PubChem BioAssay AID330 (DTP/NCI, 2004).
Several values for one entry are separate records, joined by “and”; a condition that tells them apart may be missing. Equal values may be shown once. Toxic doses and inconclusive results are not listed. Square brackets hold non-standard residues; d marks the D form. Peptide text beside a SMILES is read from it. * marks the point of attachment. ξ: configuration not given here. Cbz = O=C(OCc1ccccc1)*; ξNva = CCCC(N)C(=O)O

Test system: P388 leukemia ip, CD2F1 mice, survival T/C
Test: NCI In Vivo Anticancer Drug Screen. Data for tumor model P388 Leukemia (intraperitoneal) in CD2F1 (CDF1) mice
Conditions: endpoint: median survival time, higher = longer survival
Procedure, shortened: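 Mice carrying the transplanted tumor received test compound or vehicle. Survival was recorded in each group, and the value is the treated-group measurement divided by that of the vehicle-treated control group.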

[1] = dose: 50.0 mg/kg/injection, schedule: Q01DX005 (ip), vehicle: Klucel (hydroxypropylcellulose) (HPC)
[2] = dose: 100.0 mg/kg/injection, schedule: Q01DX005 (ip), vehicle: Klucel (hydroxypropylcellulose) (HPC)
[3] = dose: 200.0 mg/kg/injection, schedule: Q01DX005 (ip), vehicle: Klucel (hydroxypropylcellulose) (HPC)
[4] = dose: 50.0 mg/kg/injection, schedule: Q01DX009 (ip), vehicle: saline with Tween-80
[5] = dose: 100.0 mg/kg/injection, schedule: Q01DX009 (ip), vehicle: saline with Tween-80
[6] = dose: 60.0 mg/kg/injection, schedule: Q01DX005 (ip), vehicle: saline with Tween-80
[7] = dose: 120.0 mg/kg/injection, schedule: Q01DX005 (ip), vehicle: saline with Tween-80
[8] = dose: 240.0 mg/kg/injection, schedule: Q01DX005 (ip), vehicle: saline with Tween-80
[9] = dose: 50.0 mg/kg/injection, schedule: Q01DX005 (ip), vehicle: saline
[10] = dose: 100.0 mg/kg/injection, schedule: Q01DX005 (ip), vehicle: saline

O=C/C=C/C1C=Cc2c3c(c(O)c(O)c2C(=O)C1O)OCC=C3 (centres undefined)
T/C (dose: 6.0 mg/kg/injection, schedule: Q01DX009 (ip), vehicle: Klucel (hydroxypropylcellulose) (HPC)): 94 % of control | T/C (dose: 12.0 mg/kg/injection, schedule: Q01DX009 (ip), vehicle: Klucel (hydroxypropylcellulose) (HPC)): 100 % of control | T/C (dose: 24.0 mg/kg/injection, schedule: Q01DX009 (ip), vehicle: Klucel (hydroxypropylcellulose) (HPC)): 97 % of control | T/C (dose: 48.0 mg/kg/injection, schedule: Q01DX009 (ip), vehicle: Klucel (hydroxypropylcellulose) (HPC)): 104 % of control

O=S(=O)(O)O.[NH-]C(c1ccccc1)C([NH-])c1ccccc1.[Pt+2] (centres undefined)
T/C (dose: 1.56 mg/kg/injection, schedule: Q04DX002 (ip), vehicle: saline): 110 % of control | T/C (dose: 6.25 mg/kg/injection, schedule: Q04DX002 (ip), vehicle: saline): 163 % of control | T/C (dose: 12.5 mg/kg/injection, schedule: Q04DX002 (ip), vehicle: saline): 157 % of control and 173 % of control | T/C (dose: 25.0 mg/kg/injection, schedule: Q04DX002 (ip), vehicle: saline): 153 % of control and 169 % of control and 185 % of control

O=C1NC(=O)C2(OC3c4ccccc4C=NN3C3=C2C(=O)CCC3)C(=O)N1 (centres undefined)
T/C (dose: 60.0 mg/kg/injection, schedule: Q01DX005 (ip), vehicle: Klucel (hydroxypropylcellulose) (HPC)): 98 % of control | T/C (dose: 120.0 mg/kg/injection, schedule: Q01DX005 (ip), vehicle: Klucel (hydroxypropylcellulose) (HPC)): 97 % of control

CCCC(NC(=O)OCc1ccccc1)C(=O)NCC(=O)O (centres undefined) (Cbz-[ξNva]-Gly-OH)
T/C [1]: 107 % of control | T/C [2]: 93 % of control | T/C [3]: 91 % of control

CSCc1ccc(Cl)cc1N (tested in a mixture with another compound)
T/C (dose: 25.0 mg/kg/injection, schedule: Q01DX009 (ip), vehicle: saline with Tween-80): 103 % of control | T/C [4]: 106 % of control | T/C [5]: 106 % of control

[Se]=[Re]=[Se]
T/C [6]: 96 % of control | T/C [7]: 98 % of control | T/C [8]: 109 % of control

O=C(NN=C1c2ccccc2-c2ccccc21)C(F)(F)F
T/C (dose: 50.0 mg/kg/injection, schedule: Q01DX005 (ip), vehicle: Klucel + Tween-80): 100 % of control | T/C (dose: 100.0 mg/kg/injection, schedule: Q01DX005 (ip), vehicle: Klucel + Tween-80): 100 % of control | T/C (dose: 200.0 mg/kg/injection, schedule: Q01DX005 (ip), vehicle: Klucel + Tween-80): 100 % of control

C/C(=N/N/C=N/S(C)(=O)=O)c1ccccc1
T/C [1]: 103 % of control | T/C [2]: 100 % of control | T/C [3]: 99 % of control

Cc1cc[n+](-c2c3c(nc4ccccc24)-c2ccccc2C(C)(C)C3)cc1
T/C (dose: 12.5 mg/kg/injection, schedule: Q01DX005 (ip), vehicle: saline): 100 % of control | T/C (dose: 25.0 mg/kg/injection, schedule: Q01DX005 (ip), vehicle: saline): 91 % of control | T/C [9]: 94 % of control | T/C [10]: 106 % of control

CCC(O)C(C[N+](=O)[O-])C(=O)OC (centres undefined)
T/C [9]: 109 % of control | T/C [10]: 107 % of control | T/C (dose: 200.0 mg/kg/injection, schedule: Q01DX005 (ip), vehicle: saline): 102 % of control

CC(C)N(C(=S)/N=C1/SCS(=O)(=O)N1Cc1ccccc1)C(C)C
T/C (dose: 50.0 mg/kg/injection, schedule: Q04DX003 (ip), vehicle: saline with Tween-80): 97 % of control | T/C (dose: 100.0 mg/kg/injection, schedule: Q04DX003 (ip), vehicle: saline with Tween-80): 95 % of control | T/C (dose: 200.0 mg/kg/injection, schedule: Q04DX003 (ip), vehicle: saline with Tween-80): 98 % of control

COc1c(I)c2c(c([N+](=O)[O-])c1OC)C(=O)OC2C1c2c(cc3c(c2OC)OCO3)CCN1C (centres undefined)
T/C (dose: 25.0 mg/kg/injection, schedule: Q01DX005 (ip), vehicle: Klucel (hydroxypropylcellulose) (HPC)): 92 % of control | T/C [1]: 101 % of control | T/C [2]: 96 % of control | T/C [3]: 91 % of control

COc1cccc(OC(=O)c2ccc(OC)c(C3=CC(=O)C=CC3=O)c2)c1
T/C (dose: 100.0 mg/kg/injection, schedule: Q01DX001 (ip), vehicle: Klucel (hydroxypropylcellulose) (HPC)): 94 % of control | T/C (dose: 200.0 mg/kg/injection, schedule: Q01DX001 (ip), vehicle: Klucel (hydroxypropylcellulose) (HPC)): 93 % of control | T/C (dose: 400.0 mg/kg/injection, schedule: Q01DX001 (ip), vehicle: Klucel (hydroxypropylcellulose) (HPC)): 89 % of control

CCC(CC)C(=O)NCC(=O)NO
T/C (dose: 25.0 mg/kg/injection, schedule: Q01DX005 (ip), vehicle: saline with Tween-80): 100 % of control | T/C (dose: 50.0 mg/kg/injection, schedule: Q01DX005 (ip), vehicle: saline with Tween-80): 103 % of control | T/C (dose: 100.0 mg/kg/injection, schedule: Q01DX005 (ip), vehicle: saline with Tween-80): 100 % of control | T/C (dose: 200.0 mg/kg/injection, schedule: Q01DX005 (ip), vehicle: saline with Tween-80): 95 % of control

N#CC(CCCCl)(c1ccccc1)c1ccccc1
T/C (dose: 100.0 mg/kg/injection, schedule: Q04DX002 (ip), vehicle: Klucel (hydroxypropylcellulose) (HPC)): 107 % of control | T/C (dose: 200.0 mg/kg/injection, schedule: Q04DX002 (ip), vehicle: Klucel (hydroxypropylcellulose) (HPC)): 108 % of control | T/C (dose: 400.0 mg/kg/injection, schedule: Q04DX002 (ip), vehicle: Klucel (hydroxypropylcellulose) (HPC)): 108 % of control

Clc1ccc(N=C/C=C\C=C/Nc2ccc(Cl)cc2)cc1
T/C (dose: 5.0 mg/kg/injection, schedule: Q01DX009 (ip), vehicle: saline with Tween-80): 108 % of control | T/C (dose: 10.0 mg/kg/injection, schedule: Q01DX005 (ip), vehicle: saline with Tween-80): 108 % of control | T/C (dose: 10.0 mg/kg/injection, schedule: Q01DX009 (ip), vehicle: saline with Tween-80): 97 % of control | T/C (dose: 20.0 mg/kg/injection, schedule: Q01DX005 (ip), vehicle: saline with Tween-80): 95 % of control | T/C (dose: 20.0 mg/kg/injection, schedule: Q01DX009 (ip), vehicle: saline with Tween-80): 95 % of control | T/C (dose: 40.0 mg/kg/injection, schedule: Q01DX005 (ip), vehicle: saline with Tween-80): 100 % of control | T/C (dose: 80.0 mg/kg/injection, schedule: Q01DX005 (ip), vehicle: saline with Tween-80): 98 % of control | T/C (dose: 160.0 mg/kg/injection, schedule: Q01DX005 (ip), vehicle: saline with Tween-80): 93 % of control

CN(C)C(=S)N/N=C/c1ccccn1
T/C (dose: 6.25 mg/kg/injection, schedule: Q01DX005 (ip), vehicle: Klucel (hydroxypropylcellulose) (HPC)): 115 % of control | T/C (dose: 12.5 mg/kg/injection, schedule: Q01DX005 (ip), vehicle: Klucel (hydroxypropylcellulose) (HPC)): 115 % of control

COC(=O)C1(CC(=O)C=C(C)C)NC(=S)NC(=O)C1C#N (centres undefined)
T/C (dose: 60.0 mg/kg/injection, schedule: Q01DX005 (ip), vehicle: saline): 98 % of control | T/C (dose: 120.0 mg/kg/injection, schedule: Q01DX005 (ip), vehicle: saline): 103 % of control | T/C (dose: 240.0 mg/kg/injection, schedule: Q01DX005 (ip), vehicle: saline): 98 % of control

CC(=O)OCC(COC(C)=O)(CN1C(=O)c2ccccc2C1=O)CN1C(=O)c2ccccc2C1=O
T/C [6]: 100 % of control | T/C [7]: 102 % of control | T/C [8]: 102 % of control

O=S(=O)(O)c1c(O)c2ccccc2c2nc3ccccc3nc12
T/C (dose: 50.0 mg/kg/injection, schedule: Q01DX007 (ip), vehicle: saline): 105 % of control | T/C (dose: 100.0 mg/kg/injection, schedule: Q01DX007 (ip), vehicle: saline): 87 % of control

O=S(=O)(O)C(Nc1cccc(Cl)c1)c1ccccc1 (centres undefined)
T/C [4]: 97 % of control | T/C [5]: 95 % of control | T/C (dose: 200.0 mg/kg/injection, schedule: Q01DX009 (ip), vehicle: saline with Tween-80): 103 % of control

CC1=C(C)SC(=C2SC=CS2)S1
T/C (dose: 100.0 mg/kg/injection, schedule: Q04DX002 (ip), vehicle: saline with Tween-80): 102 % of control | T/C (dose: 200.0 mg/kg/injection, schedule: Q04DX002 (ip), vehicle: saline with Tween-80): 92 % of control | T/C (dose: 400.0 mg/kg/injection, schedule: Q04DX002 (ip), vehicle: saline with Tween-80): 95 % of control

NC(=S)c1ncn(C2OC(CO)C(O)C2O)c1N (centres undefined)
T/C (dose: 12.5 mg/kg/injection, schedule: Q01DX009 (ip), vehicle: saline): 104 % of control | T/C (dose: 25.0 mg/kg/injection, schedule: Q01DX009 (ip), vehicle: saline): 101 % of control | T/C (dose: 50.0 mg/kg/injection, schedule: Q01DX009 (ip), vehicle: saline): 101 % of control | T/C (dose: 100.0 mg/kg/injection, schedule: Q01DX009 (ip), vehicle: saline): 112 % of control | T/C (dose: 200.0 mg/kg/injection, schedule: Q01DX009 (ip), vehicle: saline): 112 % of control | T/C (dose: 400.0 mg/kg/injection, schedule: Q01DX009 (ip), vehicle: saline): 101 % of control
